We go through 26 compounds from US20240002344A1, “COMPOUNDS, COMPOSITIONS AND METHODS FOR HISTONE LYSINE DEMETHYLASE INHIBITION” (FibroGen, Inc., priority 2020, published 2024).

In one test the target is T1, recombinant human KDM5B (Homo sapiens, UniProt Q9UGL1).
T1 sequence (Q9UGL1 374-755 limits assumed): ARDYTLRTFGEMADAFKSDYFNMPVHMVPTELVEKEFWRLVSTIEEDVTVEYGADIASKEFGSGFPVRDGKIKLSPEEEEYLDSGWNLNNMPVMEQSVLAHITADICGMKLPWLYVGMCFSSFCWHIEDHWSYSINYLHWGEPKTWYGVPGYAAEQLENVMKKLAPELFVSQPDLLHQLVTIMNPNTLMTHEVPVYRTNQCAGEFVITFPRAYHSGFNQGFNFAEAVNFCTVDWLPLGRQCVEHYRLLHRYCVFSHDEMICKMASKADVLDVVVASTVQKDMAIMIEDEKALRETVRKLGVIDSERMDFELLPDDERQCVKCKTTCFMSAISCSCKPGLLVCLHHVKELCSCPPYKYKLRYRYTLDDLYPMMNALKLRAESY
Nature of the test: 14CO2 capture enzymatic assay (decarboxylation of [1-14C] αKG), KDM5B. Type of test: biochemical. The settings on record: 10 μM [1-14C] αKG, 90 μM non-labeled αKG, 50 μM peptide substrate, 37° C., 1 hour, final 1% DMSO. The essentials:
(§1)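 Truncated recombinant human KDM5B (H3K4me3 peptide) or KDM4A (H3K9me3 peptide), 50 μM peptide, with 10 μM [1-14C]αKG plus 90 μM unlabeled αKG, 10 μM Fe(SO4), 2 mM ascorbate in pH 7.4 HEPES, 1 h at 37 °C, 1% DMSO. Released 14CO2 trapped on Ba(OH)2 filter; IC50 by non-linear fit.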

In a further test the target is T2, recombinant human KDM4A (Homo sapiens, UniProt O75164).
T2 construct: made in house
T2 sequence (O75164 1-359 limits assumed): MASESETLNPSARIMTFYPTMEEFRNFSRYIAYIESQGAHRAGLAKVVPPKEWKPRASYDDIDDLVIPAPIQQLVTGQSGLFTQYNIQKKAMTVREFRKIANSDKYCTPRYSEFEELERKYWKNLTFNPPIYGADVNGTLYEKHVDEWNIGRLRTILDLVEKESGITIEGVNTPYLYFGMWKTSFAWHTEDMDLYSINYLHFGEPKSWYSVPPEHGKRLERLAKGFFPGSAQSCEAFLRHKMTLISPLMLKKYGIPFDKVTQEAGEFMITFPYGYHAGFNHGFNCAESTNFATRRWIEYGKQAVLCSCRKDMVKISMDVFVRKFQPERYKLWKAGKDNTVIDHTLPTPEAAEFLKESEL
Description: 14CO2 capture enzymatic assay (decarboxylation of [1-14C] αKG), KDM4A. Format: biochemical. The conditions noted are these: 10 μM [1-14C] αKG, 90 μM non-labeled αKG, 50 μM peptide substrate, 37° C., 1 hour, final 1% DMSO. The essentials: as §1

Bounds are passed on as bounds.

The term IC50 denotes the concentration that gives 50% inhibition. On to `Cc1ccc(Cl)c(Cc2cc(C#N)c(O)c(C(=O)CCC(=O)O)n2)c1Cl` [Example 155, 4-[4-Cyano-6-(2,6-dichloro-3-methyl-benzyl)-3-hydroxy-pyridin-2-yl]-4-oxo-butyric acid], for which the IC50 at recombinant human KDM5B is 180 nM; at recombinant human KDM4A, 34000 nM.
For the compound `N#Cc1cc(Cc2ccccc2)cc(C(=O)CCC(=O)O)c1O` [Example 117, 4-(5-Benzyl-3-cyano-2-hydroxy-phenyl)-4-oxo-butyric acid], the IC50 on recombinant human KDM5B was 280 nM; on recombinant human KDM4A, over 40000 nM.
Consider `Cc1cccc(C(F)(F)F)c1Cc1cc(C#N)c(O)c(C(=O)CCC(=O)O)n1` [Example 62, 4-[4-Cyano-3-hydroxy-6-(2-methyl-6-trifluoromethyl-benzyl)-pyridin-2-yl]-4-oxo-butyric acid], for which the IC50 on recombinant human KDM5B is 470 nM; at recombinant human KDM4A it was over 40000 nM.
The corresponding values for `N#Cc1cc(Cc2c(F)ccc(Cl)c2F)nc(C(=O)CCC(=O)O)c1O` [Example 56, 4-[6-(3-Chloro-2,6-difluoro-benzyl)-4-cyano-3-hydroxy-pyridin-2-yl]-4-oxo-butyric acid] are 290 nM and over 40000 nM.
Regarding `COc1cc(Cl)c(Cc2cc(C#N)c(O)c(C(=O)CCC(=O)O)n2)c(Cl)c1` [Example 147, 4-[4-Cyano-6-(2,6-dichloro-4-methoxy-benzyl)-3-hydroxy-pyridin-2-yl]-4-oxo-butyric acid], the IC50 was 160 nM at recombinant human KDM5B and over 40000 nM on recombinant human KDM4A.
With `N#Cc1cc(-c2ccc(C(F)(F)F)cc2)nc(C(=O)CCC(=O)O)c1O` [Example 26, 4-[4-Cyano-3-hydroxy-6-(4-trifluoromethyl-phenyl)-pyridin-2-yl]-4-oxo-butyric acid], the IC50 is 200 nM on recombinant human KDM5B and over 40000 nM on recombinant human KDM4A.
For `Cc1cccc(C)c1Cc1cc(C#N)c(O)c(C(=O)CCC(=O)O)c1` [Example 122, 4-[3-Cyano-5-(2,6-dimethyl-benzyl)-2-hydroxy-phenyl]-4-oxo-butyric acid], the IC50 is 230 nM on recombinant human KDM5B and over 40000 nM at recombinant human KDM4A.
`COc1ccccc1-c1cc(C#N)c(O)c(C(=O)CCC(=O)O)n1` [Example 14, 4-[4-Cyano-3-hydroxy-6-(2-methoxy-phenyl)-pyridin-2-yl]-4-oxo-butyric acid]: the IC50 at recombinant human KDM5B was 470 nM; at recombinant human KDM4A it was over 40000 nM.
In the same order, the values of `N#Cc1cc(-c2ccc(-c3ccccc3)c3ccccc23)nc(C(=O)CCC(=O)O)c1O` [Example 111, 4-[4-Cyano-3-hydroxy-6-(4-phenyl-naphthalen-1-yl)-pyridin-2-yl]-4-oxo-butyric acid] are 320 nM and over 40000 nM.
The corresponding values for `N#Cc1cc(-c2cccc3ncccc23)nc(C(=O)CCC(=O)O)c1O` [Example 112, 4-(4-Cyano-3-hydroxy-6-quinolin-5-yl-pyridin-2-yl)-4-oxo-butyric acid] are 390 nM and over 40000 nM.
As to `N#Cc1cc(NC(=O)c2ccccc2)nc(C(=O)CCC(=O)O)c1O` [Example 158, 4-(6-Benzoylamino-4-cyano-3-hydroxy-pyridin-2-yl)-4-oxo-butyric acid], the IC50 at recombinant human KDM5B was 80 nM; on recombinant human KDM4A, over 40000 nM.
On to `N#Cc1cc(-c2ccncc2)nc(C(=O)CCC(=O)O)c1O` [Example 12, 4-(4-Cyano-5-hydroxy-[2,4′]bipyridinyl-6-yl)-4-oxo-butyric acid], for which the IC50 stood at 130 nM at recombinant human KDM5B and 16000 nM on recombinant human KDM4A.
With `N#Cc1cc(Cc2cc(Cl)cc(Cl)c2)nc(C(=O)CCC(=O)O)c1O` [Example 31, 4-[4-Cyano-6-(3,5-dichloro-benzyl)-3-hydroxy-pyridin-2-yl]-4-oxo-butyric acid], the values for the IC50 at recombinant human KDM5B and at recombinant human KDM4A were 230 nM and over 40000 nM, respectively.
With `Cc1ccc(Cl)c(-c2cc(C#N)c(O)c(C(=O)CCC(=O)O)n2)c1` [Example 102, 4-[6-(2-Chloro-5-methyl-phenyl)-4-cyano-3-hydroxy-pyridin-2-yl]-4-oxo-butyric acid], the IC50 at recombinant human KDM5B was 400 nM; on recombinant human KDM4A it was over 40000 nM.
`N#Cc1ccccc1Cc1cc(C#N)c(O)c(C(=O)CCC(=O)O)n1` [Example 46, 4-[4-Cyano-6-(2-cyano-benzyl)-3-hydroxy-pyridin-2-yl]-4-oxo-butyric acid]: the IC50 on recombinant human KDM5B worked out at 430 nM; on recombinant human KDM4A, 13000 nM.
In the same order, the values of `N#Cc1cc(Cc2ccc(OC(F)(F)F)cc2)nc(C(=O)CCC(=O)O)c1O` [Example 47, 4-[4-Cyano-3-hydroxy-6-(4-trifluoromethoxy-benzyl)-pyridin-2-yl]-4-oxo-butyric acid] are 300 nM and over 40000 nM.
Take `N#Cc1cc(Oc2ccc(F)cc2)cc(C(=O)CCC(=O)O)c1O` [Example 142, 4-[3-Cyano-5-(4-fluoro-phenoxy)-2-hydroxy-phenyl]-4-oxo-butyric acid]: the IC50 on recombinant human KDM5B is 280 nM; on recombinant human KDM4A, over 40000 nM.
The corresponding values for `Cc1cccc(F)c1Cc1cc(C#N)c(O)c(C(=O)CCC(=O)O)n1` [Example 148, 4-[4-Cyano-6-(2-fluoro-6-methyl-benzyl)-3-hydroxy-pyridin-2-yl]-4-oxo-butyric acid] are 300 nM and 4300 nM.
With `Cc1cccc(-c2cc(C#N)c(O)c(C(=O)CCC(=O)O)n2)c1C` [Example 92, 4-[4-Cyano-6-(2,3-dimethyl-phenyl)-3-hydroxy-pyridin-2-yl]-4-oxo-butyric acid], the IC50 at recombinant human KDM5B is 370 nM; at recombinant human KDM4A it was over 40000 nM.
On to `N#Cc1cc(C2CCCCC2)nc(C(=O)CCC(=O)O)c1O` [Example 25, 4-(4-Cyano-6-cyclohexyl-3-hydroxy-pyridin-2-yl)-4-oxo-butyric acid], for which the results for the IC50 at recombinant human KDM5B and at recombinant human KDM4A were 330 nM and over 40000 nM, respectively.
As to `N#Cc1cc(CC2CCCCC2)nc(C(=O)CCC(=O)O)c1O` [Example 33, 4-(4-Cyano-6-cyclohexylmethyl-3-hydroxy-pyridin-2-yl)-4-oxo-butyric acid], the IC50 at recombinant human KDM5B was 420 nM; at recombinant human KDM4A, over 40000 nM.
Consider `N#Cc1cccc(Cc2cc(C#N)c(O)c(C(=O)CCC(=O)O)n2)c1` [Example 45, 4-[4-Cyano-6-(3-cyano-benzyl)-3-hydroxy-pyridin-2-yl]-4-oxo-butyric acid], for which the IC50 at recombinant human KDM5B was 540 nM; on recombinant human KDM4A, over 40000 nM.
Turning to `N#Cc1cc(-c2ccc(C(F)(F)F)cc2Cl)nc(C(=O)CCC(=O)O)c1O` [Example 115, 4-[6-(2-Chloro-4-trifluoromethyl-phenyl)-4-cyano-3-hydroxy-pyridin-2-yl]-4-oxo-butyric acid], the IC50 is 230 nM on recombinant human KDM5B and over 40000 nM at recombinant human KDM4A.
Consider `N#Cc1cc(F)ccc1-c1cc(C#N)c(O)c(C(=O)CCC(=O)O)n1` [Example 87, 4-[4-Cyano-6-(2-cyano-4-fluoro-phenyl)-3-hydroxy-pyridin-2-yl]-4-oxo-butyric acid], for which the 50% inhibitory concentration (IC50) was 280 nM at recombinant human KDM5B and over 40000 nM on recombinant human KDM4A.
Consider `N#Cc1cc(Cc2c(Cl)cc(OC(F)(F)F)cc2Cl)nc(C(=O)CCC(=O)O)c1O` [Example 143, 4-[4-Cyano-6-(2,6-dichloro-4-trifluoromethoxy-benzyl)-3-hydroxy-pyridin-2-yl]-4-oxo-butyric acid], for which the IC50 on recombinant human KDM5B was 230 nM; on recombinant human KDM4A it was over 40000 nM.
In the same order, the values of `N#Cc1cc(-c2ccc(Cl)cc2)cc(C(=O)CCC(=O)O)c1O` [Example 118, 4-(4′-Chloro-5-cyano-4-hydroxy-biphenyl-3-yl)-4-oxo-butyric acid] are 160 nM and over 40000 nM.
